Experiments:
Format in all cases: in vivo
[1] = system: Cobra tomatoes; assay: Trial 1: LCO dose and delivery medium on greenhouse tomato (Cobra); settings: for more flowers than other treatments and control: 50 ng LCO
Protocol: Cobra (a hybrid cultivar) was used to examine optimum application dose between 10 and 100 ng/plant at one or two applications and the LCO delivery medium. The levels chosen were the extremes of beneficial doses determined previously in tomato field trials. The delivery media tested were LCO in water, Apex and centrifuged Apex. The first application of LCO was made 10 days after transplanting. When applied a second time it was 2 weeks after the first application. The following parameters were tested: leaf number, plant height, number of cluster, number of flower, number of fruit. Observations were made continuously for approximately a two-month period, at one-week intervals until plant growth was limited by pot bound roots. The cobra seedlings were transplanted 32 days after seeding, the first application was 10 days thereafter, the second application was 14 days after the first application. The fruits were harvested 6 weeks after the second application.

[2] = system: greenhouse-grown tomato plants; assay: Experiments 1 and 2: effect of LCO on tomato flowering; settings: for difference in flowering between LCO treated plants and control: Experiment 2
Protocol: Two experiments were performed to investigate effect of LCO on plant's flowering using greenhouse-grown tomato plants.

[3] = system: tomato crop; assay: Trial 3: summer field trial, foliar LCO on tomato yield; settings: for advanced fruiting over control: single application
Protocol: An investigation was conducted to examine whether foliar applications of LCO led to increased yield in tomato crop production. To determine concentrations or strengths to be applicable, testing was conducted with a logarithmic increase in strength from 1 nanogram (ng) to 1000 ng/plant sprayed once, and on half, twice. The trial results are presented in the following FIGS. 11-13 and Tables 6 and 7. The parameter of interest was ripened fruit which was harvested 2 or 3 times a week, recording each time, both fruit weight and number of fruit per set of replicates. It was known that fruit arise from pollinated flowers and that an increase in the one leads to the other. FIG. 11 records, cumulative harvested (red) fruit per treatment. For the single LCO application it will be seen that the 10 and 100 ng/plant treatments have advanced fruiting by some 10 days over control (horizontal separation in weeks). That advance has allowed the plant to bear and ripen more fruit over the season for these treatments (see FIG. 11 note height over control and Tables 6 and 7 for actual weights and numbers harvested). Table 6 and FIG. 12 record harvested weight and numbers of ripened fruit over season and it can be seen that the average weight of the tomatoes is not different between treatments and control. Thus the increase in harvested weight was due to an increase in numbers harvested, in agreement with actual enumeration.

[4] = 1 ng LCO per plant, applied once
[5] = 1 ng LCO per plant, applied twice
[6] = 10 ng LCO per plant, applied once
[7] = 10 ng LCO per plant, applied twice
[8] = 100 ng LCO per plant, applied once
[9] = 100 ng LCO per plant, applied twice
[10] = 1000 ng LCO per plant, applied once
[11] = 1000 ng LCO per plant, applied twice
[12] = single application of 10 ng LCO/plant

Substance: Lipo-chitooligosaccharides [LCO]
- Number of Flowers/Plant ([1]; 10 ng, Dec. 30): 1.2
- Number of Flowers/Plant ([1]; 10 ng, Jan. 07): 2.4
- Number of Fruit/Plant ([1]; 10 ng, Jan. 07): 0.3
- Number of Flowers/Plant ([1]; 10 ng, Jan. 15): 4.4
- Number of Fruit/Plant ([1]; 10 ng, Jan. 15): 1.8
- Number of Flowers/Plant ([1]; 10 ng, Jan. 22): 5.6
- Number of Fruit/Plant ([1]; 10 ng, Jan. 22): 2.1
- Number of Flowers/Plant ([1]; 10 ng, Jan. 31): 8.1
- Number of Fruit/Plant ([1]; 10 ng, Jan. 31): 2.5
- Fruit Weight ([1]; 10 ng, Mean of bases): 87.09 Gram/Plant
- Fruit Weight ([1]; 10 ng, base Bacterial Camer): 97.97 Gram/Plant
- Fruit Weight ([1]; 10 ng, base Bacterial Supernatent): 67.2 Gram/Plant
- Fruit Weight ([1]; 10 ng, base Water): 96.11 Gram/Plant
- early yield (fruit weight) vs untreated control ([1]; 50 ng LCO treatment): statistically significant effect
- more flowers than other treatments and control ([1]; January 15): 21%
- more flowers than other treatments and control ([1]; January 22): 14%
- Number of Flowers/Plant ([1]; 50 ng, Dec. 30): 0.97
- Number of Flowers/Plant ([1]; 50 ng, Jan. 07): 2.5
- Number of Fruit/Plant ([1]; 50 ng, Jan. 07): 0.33
- Number of Flowers/Plant ([1]; 50 ng, Jan. 15): 5.2
- Number of Fruit/Plant ([1]; 50 ng, Jan. 15): 2.2
- Number of Flowers/Plant ([1]; 50 ng, Jan. 22): 6.7
- Number of Fruit/Plant ([1]; 50 ng, Jan. 22): 2.5
- Number of Flowers/Plant ([1]; 50 ng, Jan. 31): 8.7
- Number of Fruit/Plant ([1]; 50 ng, Jan. 31): 2.9
- Fruit Weight ([1]; 50 ng, Mean of bases): 104.26 Gram/Plant
- Fruit Weight ([1]; 50 ng, base Bacterial Camer): 103.32 Gram/Plant
- Fruit Weight ([1]; 50 ng, base Bacterial Supernatent): 100.48 Gram/Plant
- Fruit Weight ([1]; 50 ng, base Water): 108.99 Gram/Plant
- Number of Flowers/Plant ([1]; 100 ng, Dec. 30): 0.9
- Number of Flowers/Plant ([1]; 100 ng, Jan. 07): 2.2
- Number of Fruit/Plant ([1]; 100 ng, Jan. 07): 0.37
- Number of Flowers/Plant ([1]; 100 ng, Jan. 15): 4.4
- Number of Fruit/Plant ([1]; 100 ng, Jan. 15): 1.7
- Number of Flowers/Plant ([1]; 100 ng, Jan. 22): 6.2
- Number of Fruit/Plant ([1]; 100 ng, Jan. 22): 2.1
- Number of Flowers/Plant ([1]; 100 ng, Jan. 31): 8.7
- Number of Fruit/Plant ([1]; 100 ng, Jan. 31): 2.6
- Fruit Weight ([1]; 100 ng, Mean of bases): 87.99 Gram/Plant
- Fruit Weight ([1]; 100 ng, base Bacterial Camer): 66.26 Gram/Plant
- Fruit Weight ([1]; 100 ng, base Bacterial Supernatent): 109.13 Gram/Plant
- Fruit Weight ([1]; 100 ng, base Water): 88.57 Gram/Plant
- advance of flowering over control ([1]; Trial 1, FIG. 5, Table 3): 4 to 5 days
- advance in early fruiting over control ([1]; Trial 1, second graph): 8 to 9 days
- optimal application (early fruit set) ([1]; three to four weeks after application): approximately 50 ng per plant
- LCO treated plants flowered 3 days earlier than control ([2]; Experiment 1): over 80%
- shift in time of flowering ([2]; Experiment 1): 3 days
- more plants flowering as compared to control ([2]; Experiment 1, day 4 of assessment): 35%
- more plants flowering as compared to control ([2]; Experiment 1, day I of assessment): 25%
- difference in flowering between LCO treated plants and control ([2]; day 3 of assessment): 20%
- difference in flowering between LCO treated plants and control ([2]; initially): 10%
- Increase in No. of Tomatoes from 1 to 2 applications ([3]; 1 ng LCO per plant): 21
- Yield Increase for 2nd Application ([3]; 1 ng LCO per plant): 0.00 Kg per plant
- Cumulative Harvest to Sept 23. (24 plant Average) [3, 4]: Not as good as Control
- Cumulative Yield (kg) to Sept 23. Total weight for 24 plants [3, 4]: 57.7200 kg
- Total No. of Tomatoes per treatment [3, 4]: 300
- Yield increase over Control [3, 4]: 0.0000 Kg per plant
- Cumulative Harvest to Sept 23. (24 plant Average) [3, 5]: Not as good as Control
- Cumulative Yield (kg) to Sept 23. Total weight for 24 plants [3, 5]: 63.8760 kg
- Total No. of Tomatoes per treatment [3, 5]: 321
- Increase in No. of Tomatoes from 1 to 2 applications ([3]; 10 ng LCO per plant): 11
- Yield Increase for 2nd Application ([3]; 10 ng LCO per plant): 0.08 Kg per plant
- Cumulative Harvest to Sept 23. (24 plant Average) [3, 6]: 3.0093 Kg per plant
- Cumulative Yield (kg) to Sept 23. Total weight for 24 plants [3, 6]: 72.2240 kg
- Percent Yield inc. over Control [3, 6]: 17.7%
- Total No. of Tomatoes per treatment [3, 6]: 363
- Yield increase over Control [3, 6]: 0.4517 Kg per plant
- Cumulative Harvest to Sept 23. (24 plant Average) [3, 7]: 3.0905 Kg per plant
- Cumulative Yield (kg) to Sept 23. Total weight for 24 plants [3, 7]: 74.1720 kg
- Percent Yield inc. over Control [3, 7]: 12.6%
- Total No. of Tomatoes per treatment [3, 7]: 374
- Yield increase over Control [3, 7]: 0.3452 Kg per plant
- Increase in No. of Tomatoes from 1 to 2 applications ([3]; 100 ng LCO per plant): −8
- Yield Increase for 2nd Application ([3]; 100 ng LCO per plant): 0.06 Kg per plant
- Cumulative Harvest to Sept 23. (24 plant Average) [3, 8]: 2.7280 Kg per plant
- Cumulative Yield (kg) to Sept 23. Total weight for 24 plants [3, 8]: 65.4720 kg
- Percent Yield inc. over Control [3, 8]: 6.7%
- Total No. of Tomatoes per treatment [3, 8]: 351
- Yield increase over Control [3, 8]: 0.1703 Kg per plant
- Cumulative Harvest to Sept 23. (24 plant Average) [3, 9]: 2.7917 Kg per plant
- Cumulative Yield (kg) to Sept 23. Total weight for 24 plants [3, 9]: 67.0000 kg
- Percent Yield inc. over Control [3, 9]: 1.7%
- Total No. of Tomatoes per treatment [3, 9]: 343
- Yield increase over Control [3, 9]: 0.0463 Kg per plant
- Increase in No. of Tomatoes from 1 to 2 applications ([3]; 1000 ng LCO per plant): 35
- Yield Increase for 2nd Application ([3]; 1000 ng LCO per plant): 0.35 Kg per plant
- Cumulative Harvest to Sept 23. (24 plant Average) [3, 10]: 2.6115 Kg per plant
- Cumulative Yield (kg) to Sept 23. Total weight for 24 plants [3, 10]: 62.6760 kg
- Percent Yield inc. over Control [3, 10]: 2.1%
- Total No. of Tomatoes per treatment [3, 10]: 326
- Yield increase over Control [3, 10]: 0.0538 Kg per plant
- Cumulative Harvest to Sept 23. (24 plant Average) [3, 11]: 2.9588 Kg per plant
- Cumulative Yield (kg) to Sept 23. Total weight for 24 plants [3, 11]: 71.0120 kg
- Percent Yield inc. over Control [3, 11]: 7.8%
- Total No. of Tomatoes per treatment [3, 11]: 361
- Yield increase over Control [3, 11]: 0.2135 Kg per plant
- increase in numbers of tomatoes [3, 12]: ~20%
- yield increase over the season [3, 12]: 17%
- advanced fruiting over control ([3]; 10 ng/plant): ~10 days
- advanced fruiting over control ([3]; 100 ng/plant): ~10 days
